# Experimental data reported in PubChem BioAssay AID2060504 (Molecular Pharmacology Branch, DTP, NCI, 2025).
# pIC50: −log10 of the molar value.
# Tested on: 636577-100-R-J1-PDC complex spheroid viability
# Experiment: Anticancer human tumor 636577-100-R-J1-PDC patient-derived endometrial adenocarcinoma cell line growth inhibition [GQUAD]
# Settings: for pIC50: curve of first compound; for viability, T/C: stronger effect = lower value
# Outline: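 Viability of tumor cells grown as complex spheroids with endothelial and stromal cells, exposed to drug combinations. Top concentration at or near clinical Cmax (else 10 microM), diluted in half-log increments.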
# [1] = second compound 0.0316 µM, first compound 0.0316 µM
# [2] = second compound 0.0316 µM, first compound 0.1 µM
# [3] = second compound 0.0316 µM, first compound 0.316 µM
# [4] = second compound 0.0316 µM, first compound 1 µM
# [5] = second compound 0.0316 µM, first compound 3.16 µM
# [6] = second compound 0.0316 µM, first compound 10 µM
# [7] = second compound 0.1 µM, first compound 0.0316 µM
# [8] = second compound 0.1 µM, first compound 0.1 µM
# [9] = second compound 0.1 µM, first compound 0.316 µM
# [10] = second compound 0.1 µM, first compound 1 µM
# [11] = second compound 0.1 µM, first compound 3.16 µM
# [12] = second compound 0.1 µM, first compound 10 µM
# [13] = second compound 0.316 µM, first compound 0.0316 µM
# [14] = second compound 0.316 µM, first compound 0.1 µM
# [15] = second compound 0.316 µM, first compound 0.316 µM
# [16] = second compound 0.316 µM, first compound 1 µM
# [17] = second compound 0.316 µM, first compound 3.16 µM
# [18] = second compound 0.316 µM, first compound 10 µM
# [19] = second compound 1 µM, first compound 0.0316 µM
# [20] = second compound 1 µM, first compound 0.1 µM
# [21] = second compound 1 µM, first compound 0.316 µM
# [22] = second compound 1 µM, first compound 1 µM
# [23] = second compound 1 µM, first compound 3.16 µM
# [24] = second compound 1 µM, first compound 10 µM
# [25] = second compound 3.16 µM, first compound 0.0316 µM
# [26] = second compound 3.16 µM, first compound 0.1 µM
# [27] = second compound 3.16 µM, first compound 0.316 µM
# [28] = second compound 3.16 µM, first compound 1 µM
# [29] = second compound 3.16 µM, first compound 3.16 µM
# [30] = second compound 3.16 µM, first compound 10 µM
# [31] = second compound 10 µM, first compound 0.0316 µM
# [32] = second compound 10 µM, first compound 0.1 µM
# [33] = second compound 10 µM, first compound 0.316 µM
# [34] = second compound 10 µM, first compound 1 µM
# [35] = second compound 10 µM, first compound 3.16 µM
# [36] = second compound 10 µM, first compound 10 µM
# 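Also: viability read after seven days of drug exposure.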
# 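For viability, T/C in this document: luminescence signal used as a proxy for viable cells; 100% = DMSO vehicle control wells.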
compound,measurement,setting,value
C=CCn1c(=O)c2cnc(Nc3ccc(N4CCN(C)CC4)cc3)nc2n1-c1cccc(C(C)(C)O)n1 + CN(C)c1ccc(Nc2c3ccc(NC(=O)CCN4CCCC4)cc3nc3cc(NC(=O)CCN4CCCC4)ccc23)cc1,pIC50,second compound 0.0316 µM,6.22
same,pIC50,second compound 0.1 µM,6.52
same,pIC50,second compound 0.316 µM,6.42
same,pIC50,second compound 1 µM,6.45
same,pIC50,second compound 3.16 µM,> 7.50
same,pIC50,second compound 10 µM,> 7.50
same,"viability, T/C",[1],88.3%
same,"viability, T/C",[2],67.3%
same,"viability, T/C",[3],81.4%
same,"viability, T/C",[4],26.6%
same,"viability, T/C",[5],15.9%
same,"viability, T/C",[6],9.28%
same,"viability, T/C",[7],107%
same,"viability, T/C",[8],73.6%
same,"viability, T/C",[9],51.7%
same,"viability, T/C",[10],28.9%
same,"viability, T/C",[11],15.1%
same,"viability, T/C",[12],9.88%
same,"viability, T/C",[13],88.3%
same,"viability, T/C",[14],69.2%
same,"viability, T/C",[15],57.7%
same,"viability, T/C",[16],30.9%
same,"viability, T/C",[17],15.2%
same,"viability, T/C",[18],9.64%
same,"viability, T/C",[19],48.6%
same,"viability, T/C",[20],63%
same,"viability, T/C",[21],52.1%
same,"viability, T/C",[22],32%
same,"viability, T/C",[23],19.2%
same,"viability, T/C",[24],11.6%
same,"viability, T/C",[25],37.6%
same,"viability, T/C",[26],36.8%
same,"viability, T/C",[27],30.9%
same,"viability, T/C",[28],23.8%
same,"viability, T/C",[29],16.5%
same,"viability, T/C",[30],10.8%
same,"viability, T/C",[31],5.9%
same,"viability, T/C",[32],4.13%
same,"viability, T/C",[33],3.79%
same,"viability, T/C",[34],3.8%
same,"viability, T/C",[35],2.91%
same,"viability, T/C",[36],0.74%
CC(C)(O)C1CCC(Nc2ccc3ncc(-c4cccc(C(F)(F)F)c4)n3n2)CC1 (stereo not drawn) + CN(C)c1ccc(Nc2c3ccc(NC(=O)CCN4CCCC4)cc3nc3cc(NC(=O)CCN4CCCC4)ccc23)cc1,pIC50,second compound 0.0316 µM,5.68
same,pIC50,second compound 0.1 µM,5.84
same,pIC50,second compound 0.316 µM,5.80
same,pIC50,second compound 1 µM,5.82
same,pIC50,second compound 3.16 µM,> 7.50
same,pIC50,second compound 10 µM,> 7.50
same,"viability, T/C",[1],107%
same,"viability, T/C",[2],82%
same,"viability, T/C",[3],104%
same,"viability, T/C",[4],77.6%
same,"viability, T/C",[5],34.6%
same,"viability, T/C",[6],33.8%
same,"viability, T/C",[7],83.9%
same,"viability, T/C",[8],59.2%
same,"viability, T/C",[9],109%
same,"viability, T/C",[10],57.8%
same,"viability, T/C",[11],30%
same,"viability, T/C",[12],37.2%
same,"viability, T/C",[13],69.3%
same,"viability, T/C",[14],57.9%
same,"viability, T/C",[15],96.7%
same,"viability, T/C",[16],63.6%
same,"viability, T/C",[17],30.6%
same,"viability, T/C",[18],28.1%
same,"viability, T/C",[19],77.2%
same,"viability, T/C",[20],54.1%
same,"viability, T/C",[21],66.5%
same,"viability, T/C",[22],63.6%
same,"viability, T/C",[23],26.4%
same,"viability, T/C",[24],22.2%
same,"viability, T/C",[25],41.3%
same,"viability, T/C",[26],46.2%
same,"viability, T/C",[27],40.6%
same,"viability, T/C",[28],33.5%
same,"viability, T/C",[29],15.8%
same,"viability, T/C",[30],9.06%
same,"viability, T/C",[31],5.85%
same,"viability, T/C",[32],5.51%
same,"viability, T/C",[33],5.56%
same,"viability, T/C",[34],4.55%
same,"viability, T/C",[35],1.2%
same,"viability, T/C",[36],0.47%
COc1ncnc(C2CC2)c1-c1ncc2cnn(Cc3ccc(-c4nc(C(F)(F)F)cn4C(C)C)cc3)c2n1 + CN(C)c1ccc(Nc2c3ccc(NC(=O)CCN4CCCC4)cc3nc3cc(NC(=O)CCN4CCCC4)ccc23)cc1,pIC50,second compound 0.0316 µM,< 5.00
same,pIC50,second compound 0.1 µM,< 5.00
same,pIC50,second compound 0.316 µM,< 5.00
same,pIC50,second compound 1 µM,7.04
same,pIC50,second compound 3.16 µM,> 7.50
same,pIC50,second compound 10 µM,> 7.50
same,"viability, T/C",[1],79.6%
same,"viability, T/C",[2],62.9%
same,"viability, T/C",[3],69.6%
same,"viability, T/C",[4],64%
same,"viability, T/C",[5],56.9%
same,"viability, T/C",[6],57.4%
same,"viability, T/C",[7],69.4%
same,"viability, T/C",[8],47.5%
same,"viability, T/C",[9],66%
same,"viability, T/C",[10],39.1%
same,"viability, T/C",[11],63%
same,"viability, T/C",[12],68.8%
same,"viability, T/C",[13],71.5%
same,"viability, T/C",[14],61.9%
same,"viability, T/C",[15],58.1%
same,"viability, T/C",[16],54.4%
same,"viability, T/C",[17],64.2%
same,"viability, T/C",[18],48.9%
same,"viability, T/C",[19],57.2%
same,"viability, T/C",[20],52.5%
same,"viability, T/C",[21],49.2%
same,"viability, T/C",[22],25.7%
same,"viability, T/C",[23],54.3%
same,"viability, T/C",[24],48.9%
same,"viability, T/C",[25],32.4%
same,"viability, T/C",[26],31.1%
same,"viability, T/C",[27],36.2%
same,"viability, T/C",[28],30.8%
same,"viability, T/C",[29],26%
same,"viability, T/C",[30],17.8%
same,"viability, T/C",[31],4.33%
same,"viability, T/C",[32],4.66%
same,"viability, T/C",[33],3.91%
same,"viability, T/C",[34],3.97%
same,"viability, T/C",[35],2.12%
same,"viability, T/C",[36],0.46%
CC(C)n1c(=O)n(C)c2cnc3cc(F)c(-c4ccc(OCCCN5CCCCC5)nc4)cc3c21 + Cc1[nH]c2ccc(F)cc2c1-c1nc2c3cccnc3c3ncccc3c2[nH]1,pIC50,second compound 0.0316 µM,< 5.00
same,pIC50,second compound 0.1 µM,5.00
same,pIC50,second compound 0.316 µM,5.15
same,pIC50,second compound 1 µM,7.50
same,pIC50,second compound 3.16 µM,5.44
same,pIC50,second compound 10 µM,5.16
same,"viability, T/C",[1],73.1%
same,"viability, T/C",[2],74.1%
same,"viability, T/C",[3],88.2%
same,"viability, T/C",[4],30%
same,"viability, T/C",[5],99.5%
same,"viability, T/C",[6],52.4%
same,"viability, T/C",[7],74.4%
same,"viability, T/C",[8],91%
same,"viability, T/C",[9],70.8%
same,"viability, T/C",[10],37.9%
same,"viability, T/C",[11],69.7%
same,"viability, T/C",[12],48.6%
same,"viability, T/C",[13],80.9%
same,"viability, T/C",[14],96.9%
same,"viability, T/C",[15],60.6%
same,"viability, T/C",[16],58.2%
same,"viability, T/C",[17],87.7%
same,"viability, T/C",[18],38.5%
same,"viability, T/C",[19],57.2%
same,"viability, T/C",[20],43.3%
same,"viability, T/C",[21],60.9%
same,"viability, T/C",[22],54.3%
same,"viability, T/C",[23],98.5%
same,"viability, T/C",[24],46.8%
same,"viability, T/C",[25],57.1%
same,"viability, T/C",[26],54.3%
same,"viability, T/C",[27],59.3%
same,"viability, T/C",[28],70.8%
same,"viability, T/C",[29],47%
same,"viability, T/C",[30],29.8%
same,"viability, T/C",[31],71.9%
same,"viability, T/C",[32],50.6%
same,"viability, T/C",[33],85.5%
same,"viability, T/C",[34],89.3%
same,"viability, T/C",[35],70%
same,"viability, T/C",[36],40%
